Measured values: the NIST ThermoML archive (doi:10.1021/je034012m)
Several values for one entry are separate records, joined by “and”; a condition that tells them apart may be missing. Equal values may be shown once. Numbers after ± are expanded uncertainties.

Conditions: Crystal

O.O.[Ba+2].[Cl-].[Cl-] [barium chloride dihydrate]
vapor or sublimation pressure (295.45 K): 0.5 ± 0.33 kPa | vapor or sublimation pressure (295.55 K): 0.39 ± 0.32 kPa and 0.53 ± 0.34 kPa | vapor or sublimation pressure (295.65 K): 0.56 ± 0.35 kPa | vapor or sublimation pressure (297.35 K): 0.31 ± 0.35 kPa | vapor or sublimation pressure (304.25 K): 1.22 ± 0.33 kPa | vapor or sublimation pressure (304.55 K): 0.9 ± 0.33 kPa | vapor or sublimation pressure (306.35 K): 1.01 ± 0.33 kPa | vapor or sublimation pressure (306.95 K): 1.31 ± 0.33 kPa | vapor or sublimation pressure (307.25 K): 1.39 ± 0.33 kPa | vapor or sublimation pressure (307.35 K): 1.04 ± 0.33 kPa | vapor or sublimation pressure (308.25 K): 1.19 ± 0.32 kPa | vapor or sublimation pressure (309.45 K): 1.3 ± 0.33 kPa | vapor or sublimation pressure (319.05 K): 2.5 ± 0.34 kPa | vapor or sublimation pressure (321.15 K): 2.66 ± 0.47 kPa | vapor or sublimation pressure (323.15 K): 3.88 ± 0.76 kPa | vapor or sublimation pressure (323.45 K): 3.85 ± 0.74 kPa | vapor or sublimation pressure (323.75 K): 3.97 ± 0.73 kPa | vapor or sublimation pressure (324.15 K): 4.05 ± 0.64 kPa | vapor or sublimation pressure (324.85 K): 5.15 ± 1.1 kPa | vapor or sublimation pressure (325.55 K): 5.1 ± 0.83 kPa | vapor or sublimation pressure (336.95 K): 9.4 ± 0.6 kPa | vapor or sublimation pressure (343.65 K): 13.59 ± 0.76 kPa

O.[Ba+2].[Cl-].[Cl-] [barium chloride monohydrate]
vapor or sublimation pressure (290.45 K): 0.086 ± 0.15 kPa | vapor or sublimation pressure (304.15 K): 0.173 ± 0.16 kPa | vapor or sublimation pressure (304.45 K): 0.146 ± 0.16 kPa | vapor or sublimation pressure (305.25 K): 0.138 ± 0.16 kPa | vapor or sublimation pressure (307.25 K): 0.133 ± 0.16 kPa | vapor or sublimation pressure (307.45 K): 0.231 ± 0.16 kPa | vapor or sublimation pressure (307.95 K): 0.17 ± 0.16 kPa | vapor or sublimation pressure (308.05 K): 0.142 ± 0.16 kPa | vapor or sublimation pressure (308.45 K): 0.248 ± 0.16 kPa and 0.272 ± 0.16 kPa | vapor or sublimation pressure (308.65 K): 0.241 ± 0.16 kPa | vapor or sublimation pressure (308.95 K): 0.105 ± 0.16 kPa | vapor or sublimation pressure (309.05 K): 0.195 ± 0.16 kPa | vapor or sublimation pressure (309.25 K): 0.344 ± 0.16 kPa | vapor or sublimation pressure (310.15 K): 0.199 ± 0.16 kPa | vapor or sublimation pressure (311.45 K): 0.16 ± 0.16 kPa | vapor or sublimation pressure (312.95 K): 0.24 ± 0.16 kPa | vapor or sublimation pressure (313.45 K): 0.274 ± 0.16 kPa | vapor or sublimation pressure (315.35 K): 0.35 ± 0.16 kPa | vapor or sublimation pressure (315.95 K): 0.4 ± 0.16 kPa | vapor or sublimation pressure (316.15 K): 0.76 ± 0.16 kPa | vapor or sublimation pressure (318.45 K): 0.312 ± 0.16 kPa | vapor or sublimation pressure (322.85 K): 0.6 ± 0.16 kPa | vapor or sublimation pressure (323.55 K): 0.6 ± 0.16 kPa | vapor or sublimation pressure (334.45 K): 1.04 ± 0.17 kPa and 1.1 ± 0.17 kPa | vapor or sublimation pressure (334.85 K): 1.01 ± 0.25 kPa | vapor or sublimation pressure (334.95 K): 0.96 ± 0.27 kPa | vapor or sublimation pressure (335.45 K): 1.26 ± 0.2 kPa | vapor or sublimation pressure (337.45 K): 1.51 ± 0.18 kPa | vapor or sublimation pressure (337.65 K): 1.47 ± 0.18 kPa | vapor or sublimation pressure (344.95 K): 2.06 ± 0.18 kPa | vapor or sublimation pressure (345.25 K): 2.05 ± 0.18 kPa
